Data from US10881648B2, “Combination therapy including an MDM2 inhibitor and one or more additional pharmaceutically active agents for the treatment of cancers” (AMGEN INC., priority 2013, dated 2021).

Tested on: A204 cells
Assay: Two-way combination growth inhibition, CellTiter-Glo cell viability, 72 h, Loewe additivity analysis
Type: cell-based
Conditions: FIG. 1a, compound crossed with itself (A×A, 1×1)
Procedure: Cell lines were purchased from American Type Culture Collection (ATCC), German Collection of Microorganisms and Cell Cultures (DSMZ), and Japanese Collection of Research Bioresources (JCRB). Each line was cultured in its recommended growth medium. Cell line A375sq2 was made in accordance with the procedure set forth in J. Med. Chem. 2009, 52, 6189-6192, footnote 13.
For Examples 1 to 71, cells were seeded into 384-well cell culture plates at initial densities ranging from 300 to 7500 cells per well in a 30 μL volume, depending on the growth rate of the cell line, so that adherent cells would remain at subconfluent densities by the end of the 72-hour treatment period. […] CellTiter-Glo® Luminescent Cell Viability Assay (Promega; Madison, Wis.) was used to determine the number of viable cells based on quantitation of the amount of ATP present, an indicator of metabolically active cells. Luminescence was measured with an EnVision® Multilabel Reader (Perkin Elmer; Waltham, Mass.) for each cell line at time zero (V0) before the addition of compounds, as well as after 72 hours of compound treatment (T72). Growth inhibition (GI) was calculated according to the following equations, where V72 was luminescence of DMSO control at 72 hours and T72 was luminescence of the compound-treated sample: if T72≥V0, then GI=100×(1−((T72−V0)/(V72−V0))); if T72<V0, then […]. […]

Compound: CC(C)[C@@H](CS(=O)(=O)C(C)C)N1C(=O)[C@@](C)(CC(=O)O)C[C@H](c2cccc(Cl)c2)[C@H]1c1ccc(Cl)cc1 [Compound A, 2-((3R,5R,6S)-5-(3-chlorophenyl)-6-(4-chlorophenyl)-1-((S)-1-(isopropylsulfonyl)-3-methylbutan-2-yl)-3-methyl-2-oxopiperidin-3-yl)acetic acid]
- synergy score for the self-cross combination: 0.621
